The values that follow come from publication PMC6822764, “MitoToxy assay: A novel cell-based method for the assessment of metabolic toxicity in a multiwell plate format using a lactate FRET nanosensor, Laconic” (PLoS ONE, 2019).

For experiment [1], the system named is MDA-MB-231 cells stably expressing the FRET lactate indicator Laconic (MitoTox Reporter). Description: MitoToxy assay: toxicity-induced lactate accumulation in MitoTox Reporter cells, 96-well plate reader, with 50 μM pCMBS. The format is cell-based. As for the experimental part:
(§1) MitoTox reporter cell line was cultured in Leibowitz media (Gibco) supplemented with 10% of fetal bovine serum (FBS) at 37°C at atmospheric CO2 levels in a 100 mm petri dish. Once cells reached 100% confluency, they were trypsinized using 5% trypsin (Gibco) and washed in PBS. Viability was determine using trypan blue staining and 10,000 cells were seeded into each well of a 96 well plate. Experiments in 96 well format were performed once cells reached 100% confluency after 6 days, during the incubation media was not replaced. All the plates with signal-to-noise ration below 1.3 for monomeric Teal Fluorescent Protein (mTFP) and Venus channels were discarded. Background signal was determined with KRH buffer without cells. Experiments consisted in washing out the culture media using KRH HEPES buffer containing (mM) 136 NaCl, 3 KCl, 1.25 CaCl2, 1.25 MgCl2, 10 HEPES/Tris and pH 7.2 at 37°C with 300 mOsm. Then 200 μl of KRH HEPES buffer without any carbon sources was added to each well and the baseline was measured (RMIN), then 100 μl of buffer was replaced with mitochondrial toxicant/controls and signal was measured to obtain a stimulated response (RMAX). In experiments were pCMBS was used to block lactate exit, the inhibitor was added simultaneously with the mitochondrial toxicants. Data was collected in triplicated after 5, 10, 30, and 60 minutes of incubation. All the experiments in 96 well plates were performed in an EnVision® multiplate reader (PerkinElmer). Each well was excited at 430 nm and the intensity of mTFP and Venus fluorescence emission were recorded at 485 nm and 528 nm, using a set of filters.
(§2) Where R(mTFP/Venus) min corresponded to the minimal change of mTFP/Venus ratio during the single-cell experiments. Results in 96 well plates experiments were expressed by the ΔR%. This parameter was obtained from the difference between the RMAX and RMIN from the same well (before-after experiment) as follow: ΔR%=(R(mTFP/Venus)max−R(mTFP/Venus)min/R(mTFP/Venus)min)x100

The subject of experiment [2] is clonal MDA-MB-231 cells expressing Laconic. The experiment in a line: Single-cell lactate imaging of MitoTox Reporter cells. It counts as cell-based. The settings on record: 32 μM rotenone, 16 μM antimycin, 80 μM oligomycin, 10 μM myxothiazol. From the text: To generate a cell system with a high signal-to-noise ratio suitable for standard multiplate readers, we developed a clonal cell line with high levels and homogeneous Laconic expression. To do so, we produced a lentivirus particle to infect and transduce Laconic in MDA-MB-231 cells. From pooled cells with diverse levels of Laconic expression we selected high expression clones through FACS. […] We termed this cell line “MitoTox Reporter”. Exposure of these cells to classical mitochondrial poisons produced a robust increase in the fluorescent signal, indicating acute toxicity-induced lactate accumulation. […] With this evidence in hand, cells were tested in a multi-well plate reader.
Fig 3 Characterization of “MitoTox reporter” cell line. A) Confocal images from FACS selected clonal MDA-MB-231 cells expressing Laconic. Size bars for 20x and 60x represent 100 μm and 10 μm, respectively. Cytosolic lactate accumulation induced by treatment with: B) 32 μM rotenone, C) 16 μM of antimycin, D) 80 μM of oligomycin, and 10 μM myxothiazol. Each trace is the average of ten cells from one representative experiment.

Experiment [3] has as its system mitochondrial membrane potential (MMP). The settings on record: cited from earlier work.
In the next experiment the test system is glutathione (GSH). Also on record: method as in Li et al., 2014 [50]. As to conditions: treatment time 6 hours; ref Li et al., 2014 [50]; cited from earlier work.
The next experiment deals with cell viability. On the set-up: method as in Li et al., 2014 [50]. As to conditions: treatment time 6 hours; ref Li et al., 2014 [50]; cited from earlier work.
For experiment [4], the system named is reactive oxygen species (ROS). Also on record: method as in Li et al., 2014 [50]. The settings on record: treatment time 6 hours; ref Li et al., 2014 [50]; cited from earlier work.
The subject of experiment [5] is MitoTox Reporter cells (MDA-MB-231 expressing Laconic). Description: Pilot screening of 13 compounds with MitoTox Reporter cells, multiplate reader. The settings on record: for ΔR% (lactate accumulation): average of 4 replicate wells, Fig 9 legend 30 minutes, 37°C; for Concentration at which toxicity / mitochondrial effects were detected in the pilot screening: tested at 1, 5 and 10 μM; for ΔR% variation / lactate accumulation over all concentrations tested: 1, 5, and 10 μM. It counts as cell-based. As for the experimental part:
as §1, §2
Multiple comparisons versus control groups (Holm-Sidak method), Overall significance level P < 0,05.
The capability of the assay to identify previously described toxic drugs was explored through a pilot screening assay. We selected 13 compounds from a variety of therapeutic classes to perform a pilot screening assay using MitoTox Reporter cells and a standard multiplate reader. […] To perform the assays, we prepared master stocks for each compound in 0.2% DMSO. Assays were performed with compounds at final concentrations of 1, 5, and 10 μM and the response of MitoTox Reporter cells were measured at 5, 10, 30, and 60 minutes. […] As a negative control we selected a compound with no reported side-effects.

Experiment [6] relates to HepG2 cells. Also on record: method as in PMID 22689143. As to conditions: cited from earlier work.
Experiment [7] has as its system primary culture of astrocytes from the mouse cortex expressing Laconic. Description: Single-cell lactate imaging (Laconic) in primary culture of cortical astrocytes. It counts as cell-based. As to conditions: 32 μM rotenone, 16 μM antimycin, 5 mM azide, 80 μM oligomycin; buffer without carbon sources.
Procedure: Animals used for primary cultures were mixed F1 male mice (C57BL/6J × CBA/J), kept in an animal room under SPF conditions at a room temperature of 20 ± 2°C, in a 12/12-h light/dark cycle and with free access to water and food. Mixed cortical cultures of neuronal and glia cells (1 –to 3-day-old neonates) was cultured in Neurobasal medium (Gibco) supplemented with 5 mM glucose and B27. Cells were seeded on petri dishes and superfused with KRH HEPES pH 7.4. The lactate imaging experiments with single-cell resolution were performed using cultured astrocytes at 11–14 days post-dissection. Real time experiments were performed with KRH HEPES bathing solution containing (in mM) 136 NaCl, 3 KCl, 1.25 CaCl2, 1.25 MgCl2, 10 HEPES/Tris and pH 7.2 at 36°C with 300 mOsm, without carbon sources for mitochondrial toxicant experiments and 2 mM glucose and 1 mM lactate for Warburg index determination. Experiments were performed in upright Olympus FV1000 confocal microscope equipped with a 20X water-immersion objective (numerical aperture, 1.0) and a 440 nm solid-state laser.
To plot the data, we used a ratio between mTFP and Venus channels. This ratio is proportional to lactate levels, since its binding to the sensor produced a decrease in FRET efficiency. This ratio was expressed in two formulas described below: NormalizedΔR=R(mTFP/Venus)/R(mTFP/Venus)min
With the aim of testing if this observation occurs in general and if azide induced-lactate accumulation can be reproduced using another mitochondrial toxicant with a different molecular target, we performed single-cell experiments exposing primary culture of astrocytes from the mouse cortex expressing Laconic (Fig 1A) to different mitochondria inhibitors that block the ETC at different levels (Fig 1C). To take advantage of the maximal dynamic range of the lactate FRET sensor the baseline measurements were performed using buffer without carbon sources to force start the experiments with lactate levels below 100 μM.
Each data point is from an average of ten cells from three independent experiments.
Experiment [8] concerns HepG2 cells. Also on record: method as in Nadanaciva et al., 2012 [55]. The settings on record: treatment time 0.03 hours; ref Nadanaciva et al., 2012 [55]; cited from earlier work.
Experiment [9] relates to HepG2 cells. Also on record: method as in Nadanaciva et al., 2012 [55]. As to conditions: treatment time 0.03 hours; ref Nadanaciva et al., 2012 [55]; cited from earlier work. The source holds these as a separate data set.
Experiment [10] deals with HepG2 cells. Also on record: method as in Marroquin et al., 2007 [35]. The settings on record: treatment time 24 hours; approximated IC50 directly from plotted data in the original paper; ref Marroquin et al., 2007 [35]; cited from earlier work.
The test system of the next experiment is oxygen consumption. On the set-up: method as in Hynes et al., 2013 [72]. The settings on record: treatment time 0.13 hours; ref Hynes et al., 2013 [72]; cited from earlier work.
In experiment [11] the test system is extracellular acidification. On the set-up: method as in Hynes et al., 2013 [72]. As to conditions: treatment time 0.13 hours; ref Hynes et al., 2013 [72]; cited from earlier work.
[12] abbreviates: dose-response, treatment time 0.5 hours (Fig 8 legend: 10 minutes), 37°C, read-out: IC50 (toxicity-induced lactate accumulation, MitoToxy).
Setting [13] is: treatment time 6 hours, ref Li et al., 2014 [50], read-out: IC50, MMP.

Several values for one entry are separate records, joined by “and”; a condition that tells them apart may be missing. Equal entries are not always repeated. Entries after “also recorded” stand apart in the source; their conditions may differ. Where two headings read alike, the source gives them in different places. A value given as a limit tells only on which side of the number the result lay.

As for `CO/C(=C/C(N)=O)[C@H](C)[C@H](/C=C/c1csc(-c2csc([C@@H](C)/C=C/C=C/C(C)C)n2)n1)OC` [myxothiazol], the IC50 in experiment [1] (setting [12]) is 1.2 µM; in experiment [3] (setting [13]), 1.2 µM; in the experiment with glutathione (GSH), more than 1000 µM; in the experiment on cell viability, 183 µM; in experiment [4], 3.3 µM. For the same molecule, in [2], the “Intracellular lactate levels in MitoTox Reporter cells (single-cell)” value (“Intracellular lactate levels” for short) was “acute, fast, and robust increase of intracellular lactate levels”.
Regarding `CC(C)(C)c1ccc(C(O)CCCN2CCC(C(O)(c3ccccc3)c3ccccc3)CC2)cc1` (stereo not shown) [terfenadine], the “ΔR% (lactate accumulation)” value is listed as “without any measurable effects” in experiment [5] (1 μM), “without any measurable effects” in [5] (5 μM) and 15.64 ± 1.32% in experiment [5] (10 μM). Besides, in experiment [5], the “Concentration at which toxicity / mitochondrial effects were detected in the pilot screening” value amounted to 10 µM. For the same molecule, the IC50 in [3] (unit inferred, read-out: IC50, MMP measurements) is 4.4 µM.
Consider `CN(C)C(=N)N=C(N)N` [metformin], for which the “ΔR% variation / lactate accumulation over all concentrations tested” value (“ΔR% variation / lactate accumulation” for short) in experiment [5] is “None of these molecules produced an important ΔR% variation; also recorded: did not induce intra-cellular lactate accumulation”.
As for `CN(CCOc1ccc(CC2SC(=O)NC2=O)cc1)c1ccccn1` (stereo not shown) [rosiglitazone], in experiment [5] (10 μM), the “ΔR% (lactate accumulation)” value was “over 14%”. The “Concentration at which toxicity / mitochondrial effects were detected in the pilot screening” value in experiment [5] worked out at 5 µM. Further, the IC50 in experiment [3] (setting [13]) was more than 1000 µM. The “Effect on OCR and ECAR” value in the experiment on HepG2 cells [6] (between 0.13 and 100 μM) is recorded as “no effects were detected”.
Turning to `CC(C)C(=O)Nc1ccc([N+](=O)[O-])c(C(F)(F)F)c1` [flutamide], the “ΔR% (lactate accumulation)” value in [5] (10 μM) came to 8.71 ± 2.06%. Besides, the “Concentration at which toxicity / mitochondrial effects were detected in the pilot screening” value in experiment [5] came out at 10 µM.
Regarding `CC(=O)Oc1ccccc1C(=O)O` [aspirin, acetylsalicylic acid], in experiment [5], the “ΔR% variation / lactate accumulation” value is recorded as “None of these molecules produced an important ΔR% variation; also recorded: did not induce intra-cellular lactate accumulation”.
For the molecule `CCC(C)(C)C(=O)O[C@H]1C[C@@H](C)C=C2C=C[C@H](C)[C@H](CC[C@@H]3C[C@@H](O)CC(=O)O3)[C@H]21` [simvastatin], the “ΔR% variation / lactate accumulation” value in experiment [5] is “None of these molecules produced an important ΔR% variation”. Further, in experiment [3] (setting [13]), the IC50 was 63.2 µM.
On to `C=C(C)[C@H]1Cc2c(ccc3c2O[C@@H]2COc4cc(OC)c(OC)cc4[C@@H]2C3=O)O1` [rotenone], for which the IC50 is 0.0027 ± 0.00141 µM in experiment [1] (Homo sapiens, MDA-MB-231, read-out: IC50 (toxicity-induced lactate accumulation)); 0.0025 µM in experiment [1] (Homo sapiens, MDA-MB-231, read-out: IC50 (toxicity-induced lactate accumulation, MitoToxy)); 0.371 µM with HepG2 cells [8]; 0.263 µM with HepG2 cells [9]; 0.05 µM with HepG2 cells [10]; 20.3 µM in experiment [3] (setting [13]). The IC50 with glutathione (GSH) was 518 µM; with cell viability, more than 1000 µM; in [4], 10.5 µM; in the experiment with oxygen consumption it was 0.02 µM; in [11] it was 0.002 µM. In addition, in [7], the “Cytosolic lactate accumulation in astrocytes” value is “induced an acute cytosolic lactate accumulation”. Also, the “Intracellular lactate levels” value in experiment [2] is “acute, fast, and robust increase of intracellular lactate levels”.
antimycin: the IC50 in experiment [1] (setting [12]) was 0.00024 µM; in the experiment on HepG2 cells [8], 0.1 µM; in the experiment with HepG2 cells [9], 0.004 µM; in the experiment on HepG2 cells [10], 0.006 µM; in [3] (setting [13]) it was 2.1 µM; with glutathione (GSH), 228 µM. Moreover, the half-inhibitory concentration (IC50) in the experiment on cell viability is 291 µM; in experiment [4], 17.7 µM; in the experiment on oxygen consumption, 0.039 µM; in experiment [11] it was 0.074 µM. Also, the “Cytosolic lactate accumulation in astrocytes” value in experiment [7] was “induced an acute cytosolic lactate accumulation”. In [2], the “Intracellular lactate levels” value is “acute, fast, and robust increase of intracellular lactate levels”.
As to `CC1(COc2ccc(CC3SC(=O)NC3=O)cc2)CCCCC1` (stereo not shown) [ciglitazone], the “ΔR% (lactate accumulation)” value in experiment [5] (10 μM) was “over 14%”. Moreover, the “Concentration at which toxicity / mitochondrial effects were detected in the pilot screening” value in [5] turned out to be 5 µM. In experiment [3] (setting [13]), the half-maximal inhibitory concentration (IC50) was 136 µM. The EC50 with HepG2 cells [6] (Seahorse technology, read-out: Concentration required to change the OCR and ECAR by 50%) is more than 100 µM.
As for `CC[C@@]1(O)C(=O)OCc2c1cc1n(c2=O)Cc2cc3ccccc3nc2-1` [camptothecin], the “ΔR% (lactate accumulation)” value is “no change in ΔR% was detected” in experiment [5] (1 μM); “potent effect and 13.52 ± 3.6%” in experiment [5] (5 μM); 49.18 ± 7.4% in [5] (10 μM). In addition, the “Cytosolic lactate accumulation (concentration)” value in [5] (10 μM, inferred from the reported dynamic range and sensitivity of Laconic) is listed as “over 10 mM”. In addition, the “Concentration at which toxicity / mitochondrial effects were detected in the pilot screening” value in [5] was 5 µM. In addition, the IC50 in experiment [3] (setting [13]) is 206 µM.
For the molecule `COc1cc([C@@H]2c3cc4c(cc3[C@@H](O[C@@H]3O[C@@H]5CO[C@@H](C)O[C@H]5[C@H](O)[C@H]3O)[C@H]3COC(=O)[C@H]23)OCO4)cc(OC)c1O` [etoposide], the “ΔR% variation / lactate accumulation” value in experiment [5] is recorded as “None of these molecules produced an important ΔR% variation; also recorded: did not induce intra-cellular lactate accumulation”.
Take `CC1(C)NC(=O)N(c2ccc([N+](=O)[O-])c(C(F)(F)F)c2)C1=O` [nilutamide]: the entries for the “ΔR% variation / lactate accumulation” value in [5] and in experiment [5] (listed as nilutamine) were “did not produce ΔR% changes at all the concentrations tested” and “did not produce any effect”, respectively.
With `COc1cc2nc(N3CCN(C(=O)c4ccco4)CC3)nc(N)c2cc1OC` [prazosin], the “ΔR% variation / lactate accumulation” value in experiment [5] is reported as “None of these molecules produced an important ΔR% variation”. Moreover, the IC50 in [3] (setting [13]) was 6.3 µM.
